Experimental data published in patent US20200237700A1, “METHODS OF REDUCING OR PREVENTING OXIDATION OF SMALL DENSE LDL OR MEMBRANE POLYUNSATURATED FATTY ACIDS” (Amarin Pharmaceuticals Ireland Limited, priority 2015, published 2020).

What was measured:
[1] = Glucose-induced membrane lipid peroxidation (LOOH) in multilamellar vesicles, CHOD-iodide assay (Example 4); format: biochemical
Procedure: Vitamin E (α-tocopherol) was also purchased from Sigma-Aldrich and prepared in ethanol at 1.0 mM (ε=3.06×10^4 M^−1 cm^−1 at 294 nm) just prior to experimental use. […] All test compounds were further diluted in ethanol or aqueous buffer as needed. Glucose was prepared in saline buffer (0.5 mM HEPES, 154 mM NaCl, pH 7.3) at 11.0 mM (200 mg/dL). CHOD-iodide color reagent (stock) was prepared, with slight modification, as described by from El-Saadani et al. (J. […] Samples were shell-dried under nitrogen gas and placed under vacuum for 1 h to remove residual solvent. […] Lipid suspensions were then vortexed for 3 min at ambient temperature to form MLVs. All MLV samples were subjected to time-dependent autoxidation by incubating at 37° C. in an uncovered, shaking water bath. This method allows lipid peroxidation to occur gradually without requiring the use of exogenous initiators. Small aliquots (5-100 μL) of each sample were removed, immediately following MLV preparation (0 hour) and after exposing samples to oxidative conditions for 72 or 96 hour, and combined with 1.0 mL of activated CHOD-iodide color reagent. Aliquot volume was reduced with each successive time point to ensure that spectrophotometric readings were within the optimal adsorption range. Test samples were covered and incubated in darkness at room temperature for at least 4 hr. Sample absorbances were then measured against a CHOD blank at 365 nm using a Beckman DU-640 spectrophotometer. The CHOD colorimetric assay is based on the oxidation of iodide (I^−) by lipid hydroperoxide (LOOH) to form triiodide (I3^−), the quantity of which is directly proportional to the amount of LOOH present in the lipid sample. The molar absorptivity (E) of I3^− is 2.46×10^4 M^−1 cm^−1 at 365 nm. […] The concentration of glucose selected was consistent with previous experimental studies of hyperglycemia under controlled laboratory conditions or observed in well-defined animal models of Type II diabetes following a glucose challenge. […] Values in FIG. 1 are mean±S.D. (N=6). EPA inhibited the peroxidative effects of glucose by 88% and 86% at 72 and 96 hours, respectively, which was highly significant (p<0.001) as compared to glucose treatment alone. […] Overall ANOVA-0 hour data: p=0.6655, F=0.4185; 72 hour data: p<0.0001, F=428.72; 96 hour data: p<0.0001, F=322.01.

[2] = test system: unfractionated LDL isolated from human plasma; assay: Copper-induced oxidation of unfractionated LDL, TBARS (Example 6); format: biochemical; settings: 1.0 μM to 10.0 μM; data not shown
Procedure: All test compounds were further diluted in ethanol or aqueous buffer as needed. Venous blood was collected from healthy volunteers into vacutainer tubes containing sodium EDTA. […] Plasma and lipoprotein fractions were maintained at 4° C. and protected from excessive exposure to light. Prior to oxidation experiments, EDTA was removed from the lipoprotein fraction using PD-10 desalting columns (GE Healthcare, Piscataway N.J.). After equilibration of the column with phosphate buffered saline (PBS), 2.5 mL of the lipoprotein fraction was loaded on the column and the flow-through discarded. The lipoprotein was then eluted with 3 mL of PBS. The LDL fractions were further diluted with PBS to obtain a 100 μg/mL apoB100 concentration. […] Differences between groups were analyzed using the two-tailed, Student's t-test (for comparisons between only two groups) or ANOVA followed by Dunnett or Student-Newman-Keuls multiple comparisons post-hoc analysis (for comparisons between three or more groups).

[3] = test system: sdLDL isolated from human subjects under hyperglycemia; assay: Glucose-induced sdLDL oxidation, TBARS/MDA (Example 10); format: biochemical; settings: glucose 200 mg/dL; for glucose-induced sdLDL oxidation: 10.0 μM
Procedure: Vitamin E (α-tocopherol) purchased from Sigma-Aldrich was prepared in ethanol at 1.0 mM (c=3.06×10^4 M^−1 cm^−1 at 294 nm) prior to experimental use. Test compounds were further diluted in ethanol or aqueous buffer as needed. Phosphate Buffered Saline (PBS) purchased from Sigma-Aldrich was prepared in double distilled water at 10 mM (138 mM NaCl, 2.7 mM KCl, pH 7.4). […] Lipid oxidation was measured by the colorimetric detection of malondialdehyde (MDA), a marker of oxidative stress. Data were presented as mean±SD for (n) separate samples or experiments. Differences between groups were analyzed using the unpaired, two-tailed Student's t-test (for comparisons between only two groups) or ANOVA followed by Student-Newman-Keuls multiple comparisons post hoc analysis (for comparisons between three or more groups).

[4] = test system: sdLDL from plasma of healthy volunteers; assay: Time-dependent sdLDL oxidation, MDA formation over 4 hours (Example 13); format: biochemical, human; settings: entire experimental time course (4 hours)
Procedure: sdLDL was isolated from the plasma of healthy volunteers by iodixanol density gradient centrifugation and adjusted to a final apolipoprotein concentration of 2 mg/mL. Sample aliquots (100 μg apolipoprotein) were incubated with EPA, DHA, or EPA+DHA (each at 10 μM) for 30 minutes at 37° C. and then treated with 10 μM CuSO4 to initiate lipid oxidation. sdLDL oxidation was measured spectrophotometrically as a function of malondialdehyde (MDA) formation at various intervals over 4 hours. Vitamin E was also tested as a positive control. Experiments were conducted in triplicate and reported as mean±SD.

[5] = test system: human LDL (unfractionated); assay: Copper-induced unfractionated LDL oxidation, TBARS 1 hr (Example 7); format: biochemical; settings: 10 μM
Procedure: (§1) An experiment to study the antioxidant effect of EPA in LDL and small dense […] performed. […] Fenofibrate, gemfibrozil, and niacin were purchased from Sigma-Aldrich. […] Vitamin E was also incubated with sample aliquots as a positive control.

human sdLDL [6] = assay: Copper-induced sdLDL oxidation, TBARS (Example 7); format: biochemical; settings: for effect on sdLDL oxidation as compared to vehicle-treated controls: 10 μM, 1 hour
Procedure: as §1

[7] = Small angle x-ray diffraction of glucose-treated model membranes, cholesterol domain peak intensity (Example 4); format: physicochemical; settings: any experimental time point; 1:30 drug-to-phospholipid; glucose 200 mg/dL
Procedure: After centrifugal orientation, sample supernatants were aspirated and aluminum foil substrates, each supporting a single membrane pellet, were removed from the sedimentation cells. […] All x-ray diffraction experiments were conducted at 20° C., 74% relative humidity.
Oriented membrane samples were aligned at grazing incidence with respect to a collimated, mono-chromatic CuKα x-ray beam (Kα1 and Kα2 unresolved; λ=1.54 Å) produced by a Rigaku Rotaflex RU-200, high-brilliance microfocus generator (Rigaku-MSC, The Woodlands, Tex.) as previously described (Mason et al., Biophys. J., vol. 55(4), pages 769-778 (1989)).
Routines written in Origin 8.6 (OriginLab Corporation, Northampton, Mass.) were used to determine total peak area (associated with all diffraction peaks in a given pattern) against which the second-order cholesterol domain peak was normalized.

human sdLDL [8] = assay: Copper-induced sdLDL oxidation, TBARS after 2 hr (Example 6); format: biochemical
Procedure: An experiment to study the antioxidant effect of EPA in small dense […] performed. […] Vitamin E (α-tocopherol) was purchased from Sigma-Aldrich and prepared in ethanol at 1.0 mM (ε=3.06×10^4 M^-1 cm^-1 at 294 nm) just prior to experimental use. All test compounds were further diluted in ethanol or aqueous buffer as needed. Venous blood was collected from healthy volunteers into vacutainer tubes containing sodium EDTA. Plasma was separated by centrifugation at 3000 g for 25 min at 4° C. and adjusted to a density of 1.020 g/mL with KBr. Triglyceride-rich lipoproteins (TGRL) and LDL fractions were then isolated by sequential centrifugation at 70,000 rpm at 4° C. in a Beckman LE-80 ultracentrifuge using a Beckman 50.4Ti rotor (Beckman Coulter, Inc., Fullerton, Calif.). The TGRL fraction (with a relative density of <1.020) was aspirated from the top of the centrifugate and discarded, leaving an LDL-enriched […] relative density of 1.020 to 1.063). […] The sdLDL subfraction was retained for additional experimentation. Plasma and lipoprotein fractions were maintained at 4° C. and protected from excessive exposure to light. Prior to oxidation experiments, EDTA was removed from the lipoprotein fraction using PD-10 desalting columns (GE Healthcare, Piscataway N.J.). After equilibration of the column with phosphate buffered saline (PBS), 2.5 mL of the lipoprotein fraction was loaded on the column and the flow-through discarded. The lipoprotein was then eluted with 3 mL of PBS. The LDL fractions were further diluted with PBS to obtain a 100 μg/mL apoB100 concentration. […] Data are presented as mean±S.D. for (N) separate samples or treatment groups. Differences between groups were analyzed using the two-tailed, Student's t-test (for comparisons between only two groups) or ANOVA followed by Dunnett or Student-Newman-Keuls multiple comparisons post-hoc analysis (for comparisons between three or more groups).

[9] = Small angle x-ray diffraction of cholesterol-enriched POPC model membranes, cholesterol domain peak intensity (Example 9); format: physicochemical; settings: drug-to-phospholipid mole ratio 1:30
Procedure: The fatty acid stock solutions were stored at −20° C. until use. […] Samples were shell-dried under nitrogen gas and placed under vacuum for 3 hours to remove residual solvent at room temperature. After desiccation, each sample was resuspended in saline buffer (0.5 mM HEPES, 154 mM NaCl, pH 7.3) to yield a final phospholipid concentration of 2.5 mg/mL. Lipid suspensions were then vortexed for 3 minutes at ambient temperature to form MLVs. Membrane lipid vesicles were oriented for x-ray diffraction analysis as described by others (e.g., Herbette et al., Biophys. […] Briefly, a 100 μL aliquot of each MLV preparation (containing 250 μg MLV) was transferred to a Lucite® sedimentation cell fitted with an aluminum foil substrate designed to collect MLVs into a single membrane pellet upon centrifugation. […] After centrifugal orientation, sample supernatants were aspirated and aluminum foil substrates, each supporting a single membrane pellet, were removed from the sedimentation cells. Sample pellets were dried for 5-10 minutes at ambient conditions, mounted onto curved glass supports, and placed in hermetically-sealed, brass or glass containers (for immediate analysis or temporary storage, respectively). All x-ray diffraction experiments were conducted at 20° C., 74% relative humidity. The latter was established by exposing membrane samples to saturated solutions of L-(+)-tartaric acid (K2C4H4O6.½H2O) for at least 1 hour prior to experimental analysis. Oriented membrane samples were aligned at grazing incidence with respect to a collimated, mono-chromatic CuKα x-ray beam (Kα1 and Kα2 unresolved; λ=1.54 Å) produced by a Rigaku Rotaflex RU-200, high-brilliance microfocus generator (Rigaku-MSC, The Woodlands, Tex.) as previously described (Mason et al., Biophys. J., vol. 55(4), pages 769-778 (1989)). The samples were initially subjected to x-ray diffraction analysis at least 12 hours after formation of the membrane pellets and retested for up to several days. […] Collimation of the x-ray beam was achieved using a single Franks mirror. Diffraction data were collected on a one-dimensional, position-sensitive electron detector (Hecus X-ray Systems, Graz, Austria) at a sample-to-detector distance of 150 mm from the sample site. […] Routines written in Origin 8.6 (OriginLab Corporation, Northampton, Mass.) were used to determine total peak area (associated with all diffraction peaks in a given pattern) against which the second-order cholesterol domain peak was normalized. […] Differences between groups were analyzed using the two-tailed, Student's t-test (for comparisons between only two groups) or ANOVA followed by Dunnett or Student-Newman-Keuls multiple comparisons post-hoc analysis (for comparisons between three or more groups). […]

Cc1c(C)c2c(c(C)c1O)CC[C@@](C)(CCC[C@H](C)CCC[C@H](C)CCCC(C)C)O2 [vitamin E, α-tocopherol]
effect on LOOH formation / lipid peroxidation ([1]; 72- and 96-hour time points, 1:30 drug-to-phospholipid mole ratio, glucose): no significant effect
LDL oxidation [2]: did not inhibit LDL oxidation at any concentration
glucose-induced sdLDL oxidation [3]: failed to inhibit sdLDL oxidation
increased sdLDL oxidation as compared to glucose-treated controls [3]: 63%
antioxidant effect on sdLDL oxidation [4]: no significant antioxidant effect
effect on unfractionated LDL oxidation as compared to vehicle-treated controls [5]: no significant effect
effect on sdLDL oxidation as compared to vehicle-treated controls (human sdLDL [6]): no significant effect
effect on cholesterol domain formation as compared to control [7]: no significant effect
reduced TBARS levels compared to vehicle-treated controls (human sdLDL [8]; 10.0 μM, 10 μM CuSO4): 26%
sdLDL oxidation (human sdLDL [8]; concentrations below the highest (10.0 μM)): did not inhibit sdLDL oxidation

CC(C)c1c(C(=O)Nc2ccccc2)c(-c2ccccc2)c(-c2ccc(F)cc2)n1CC[C@@H](O)C[C@@H](O)CC(=O)O [atorvastatin]
effect on unfractionated LDL oxidation as compared to vehicle-treated controls [5]: did not have any significant antioxidant activity
effect on sdLDL oxidation as compared to vehicle-treated controls (human sdLDL [6]): did not have any significant antioxidant activity
inhibited TBARS formation / sdLDL oxidation vs vehicle (human sdLDL [6]; each agent at 10 μM, 1 hr): 0.1±7%

CC(C)c1c(C(=O)Nc2ccccc2O)c(-c2ccccc2)c(-c2ccc(F)cc2)n1CC[C@@H](O)C[C@@H](O)CC(=O)O [ATM, Atorvastatin ortho- (o-) hydroxy (active) metabolite]
antioxidant effects of separate treatments (LOOH formation) ([1]; each at 1.0 μM, glucose 200 mg/dL, 96 hours): potent antioxidant effects
inhibition of sdLDL oxidation vs vehicle (human sdLDL [6]; ATM 0.5 μM, alone or in combination with EPA 1.0 μM, 1 hr): 5±5%
inhibition of sdLDL oxidation vs vehicle (human sdLDL [6]; each agent at 1.0 μM, 1 hr): 18±5%

Cc1ccc(C)c(OCCCC(C)(C)C(=O)O)c1 [gemfibrozil]
glucose-induced sdLDL oxidation [3]: did not inhibit glucose-induced sdLDL oxidation
effect on unfractionated LDL oxidation as compared to vehicle-treated controls [5]: no significant effect
effect on sdLDL oxidation as compared to vehicle-treated controls (human sdLDL [6]): no significant effect
effect on cholesterol domains / domain size [9]: no significant changes in cholesterol domain size
